From the NIST ThermoML archive (doi:10.1016/j.jct.2013.08.034)
Numbers after ± are expanded uncertainties.

Assay: xn = mol fraction of the nth substance listed
Conditions: 101 kPa, Liquid; for electrical conductivity: Conductivity Meter Jenco 3107; for viscosity: Cone and plate viscometry; for mass density: Vibrating tube method

CC1COC(=O)O1 (configuration not stated) [4-methyl-1,3-dioxolan-2-one] + CCCC[n+]1ccn(C)c1.O=S(=O)([N-]S(=O)(=O)C(F)(F)F)C(F)(F)F
Conditions	electrical conductivity [S/m]	mass density [kg/m3]	viscosity [mPa·s]
293.15 K, x2 = 0	–	–	2.86 ± 0.29
293.15 K, x2 = 0.0146	–	1216.01 ± 0.44	–
293.15 K, x2 = 0.0296	–	1226.83 ± 0.44	–
293.15 K, x2 = 0.0453	–	1237.53 ± 0.45	–
293.15 K, x2 = 0.0502	0.792 ± 0.024	–	–
293.15 K, x2 = 0.0616	–	1247.91 ± 0.46	–
293.15 K, x2 = 0.0732	–	1254.92 ± 0.46	–
293.15 K, x2 = 0.0997	–	1269.69 ± 0.47	–
293.15 K, x2 = 0.1	–	–	4.74 ± 0.48
293.15 K, x2 = 0.1004	0.92 ± 0.028	–	–
293.15 K, x2 = 0.2001	1.08 ± 0.032	–	–
293.15 K, x2 = 0.2002	–	–	7.21 ± 0.72
293.15 K, x2 = 0.2004	–	1314.48 ± 0.5	–
293.15 K, x2 = 0.3002	0.938 ± 0.028	–	–
293.15 K, x2 = 0.3007	–	–	10.74 ± 1.1
293.15 K, x2 = 0.3081	–	1348.61 ± 0.53	–
293.15 K, x2 = 0.3998	–	–	14.73 ± 1.5
293.15 K, x2 = 0.4004	–	1370.63 ± 0.55	–
293.15 K, x2 = 0.4005	0.814 ± 0.024	–	–
293.15 K, x2 = 0.5004	–	–	20.17 ± 2
293.15 K, x2 = 0.5007	0.752 ± 0.023	–	–
293.15 K, x2 = 0.5021	–	1389.4 ± 0.57	–
293.15 K, x2 = 0.5839	–	1401.58 ± 0.58	–
293.15 K, x2 = 0.6002	–	–	26.37 ± 2.6
293.15 K, x2 = 0.6003	0.669 ± 0.02	–	–
293.15 K, x2 = 0.6902	–	1414.42 ± 0.59	–
293.15 K, x2 = 0.6979	–	–	33.56 ± 3.4
293.15 K, x2 = 0.6989	0.578 ± 0.017	–	–
293.15 K, x2 = 0.7989	–	1424.99 ± 0.6	–
293.15 K, x2 = 0.8001	0.497 ± 0.015	–	–
293.15 K, x2 = 0.8015	–	–	42.09 ± 4.2
293.15 K, x2 = 0.8959	0.422 ± 0.013	–	50.34 ± 5.1
293.15 K, x2 = 0.898	–	1432.81 ± 0.61	–
298.15 K, x2 = 0	–	–	2.65 ± 0.27
298.15 K, x2 = 0.0146	–	1210.26 ± 0.43	–
298.15 K, x2 = 0.0296	–	1221.14 ± 0.44	–
298.15 K, x2 = 0.0453	–	1231.8 ± 0.45	–
298.15 K, x2 = 0.0502	0.899 ± 0.027	–	–
298.15 K, x2 = 0.0616	–	1242.22 ± 0.45	–
298.15 K, x2 = 0.0732	–	1249.22 ± 0.46	–
298.15 K, x2 = 0.0997	–	1264.08 ± 0.46	–
298.15 K, x2 = 0.1	–	–	4.29 ± 0.43
298.15 K, x2 = 0.1004	1.02 ± 0.03	–	–
298.15 K, x2 = 0.2001	1.21 ± 0.036	–	–
298.15 K, x2 = 0.2002	–	–	6.43 ± 0.65
298.15 K, x2 = 0.2004	–	1308.99 ± 0.5	–
298.15 K, x2 = 0.3002	1.06 ± 0.032	–	–
298.15 K, x2 = 0.3007	–	–	9.27 ± 0.93
298.15 K, x2 = 0.3081	–	1343.32 ± 0.53	–
298.15 K, x2 = 0.3998	–	–	12.6 ± 1.3
298.15 K, x2 = 0.4004	–	1365.43 ± 0.55	–
298.15 K, x2 = 0.4005	0.924 ± 0.028	–	–
298.15 K, x2 = 0.5004	–	–	17.01 ± 1.7
298.15 K, x2 = 0.5007	0.855 ± 0.026	–	–
298.15 K, x2 = 0.5021	–	1384.34 ± 0.56	–
298.15 K, x2 = 0.5839	–	1396.54 ± 0.58	–
298.15 K, x2 = 0.6002	–	–	21.71 ± 2.2
298.15 K, x2 = 0.6003	0.761 ± 0.023	–	–
298.15 K, x2 = 0.6902	–	1409.46 ± 0.59	–
298.15 K, x2 = 0.6979	–	–	27.64 ± 2.8
298.15 K, x2 = 0.6989	0.667 ± 0.02	–	–
298.15 K, x2 = 0.7989	–	1420.01 ± 0.6	–
298.15 K, x2 = 0.8001	0.581 ± 0.017	–	–
298.15 K, x2 = 0.8015	–	–	34.76 ± 3.5
298.15 K, x2 = 0.8959	0.49 ± 0.015	–	40.95 ± 4.1
